Assay [1] has as its system leukemia and colon cancer cell lines. The experiment in a line: NCI screening at several concentrations (GI50, TGI, LC50). In kind it is cell-based, human. As for the experimental part: The human tumor cell lines of the cancer screening panel were grown in RPMI 1640 medium containing 5% fetal bovine serum and 2 mM L-glutamine. For a typical screening experiment, cells are inoculated into 96 well microtiter plates in 100 μL at plating densities ranging from 5000 to 40,000 cells/well depending on the doubling time of individual cell lines. After cell inoculation, the microtiter plates are incubated at 37° C., 5% CO2, 95% air and 100% relative humidity for 24 hours prior to addition of experimental drugs. After 24 hours, two plates of each cell line are fixed in situ with Trichloroacetic acid (“TCA”), to represent a measurement of the cell population for each cell line at the time of drug addition. Experimental drugs are solubilized in dimethyl sulfoxide at 400-fold the desired final maximum test concentration and stored frozen prior to use. At the time of drug addition, an aliquot of frozen concentrate is thawed and diluted to twice the desired final maximum test concentration with complete medium containing 50 ng/mL gentamicin. An aliquot of 100 μL of this drug dilution is added to the appropriate microtiter wells already containing 100 μL of medium, resulting in the required final drug concentrations. Following drug addition, the plates are incubated for an additional 48 h at 37° C., 5% CO2, 95% air, and 100% relative humidity. For adherent cells, the assay is terminated by the addition of cold TCA. Cells are fixed in situ by the gentle addition of 50 μL of cold 50% (w/v) TCA (final concentration, 10% TCA) and incubated for 60 min at 4° C. The supernatant is discarded, and the plates are washed five times with tap water and air dried. Sulforhodamine B (SRB) solution (100 μL) at 0.4% (w/v) in 1% acetic acid is added to each well, and plates are incubated for 10 min at room temperature. After staining, unbound dye is removed by washing five times with 1% acetic acid and the plates are air dried. Bound stain is subsequently solubilized with 10 mM trizma base, and the absorbance is read on an automated plate reader at a wavelength of 515 nm. For suspension cells, the methodology is the same except that the assay is terminated by fixing settled cells at the bottom of the wells by gently adding 50 μL of 80% TCA (final concentration, 16% TCA). FIGS. 37-74 indicate the growth inhibition effects of selected Compounds against a variety of cell lines based on the above described testing configuration. FIGS. 37-74 present the Growth percent for a given compound against the cell lines and both values and a bar chart of the difference between the mean growth percent and the growth percent which is an indication of the selectivity of the compound for that particular cell line. […]

Assay [2] deals with MDA-MB-231 human breast cancer cell line. The experiment in a line: MTT assay of MDA-MB-231 cells. The format is cell-based. To be noted: Homo sapiens, media containing 5% fetal bovine serum. The procedure: (§1) MDA-MB-231 and MCF7 cells were plated at a density of 8×10^3 cells/well and 10^4 cells/well in 96-well culture plates, respectively. The compounds were fed in serum free media containing 5% and 1% fetal bovine serum for MDA-MB-231 and MCF7 cells, respectively.
(Tetrazolium assays rely on reduction of a dye to a coloured formazan, in cell work by metabolically active cells.)

The test system of assay [3] is MCF7 human breast cancer cell line. The experiment in a line: MTT assay of MCF7 cells. To be noted: Homo sapiens, media containing 1% fetal bovine serum. In kind it is cell-based. The procedure: as §1
For assay [4], the system named is +SA mammary epithelial cells. The experiment in a line: MTT assay of +SA cells (antiproliferative activity). The format is cell-based, mouse. The procedure: The antiproliferative activities of Compounds 3-44 against the highly metastatic malignant +SA mammary epithelial cells were evaluated by MTT assay. Materials for the assay were purchased from Sigma Chemical Company (St. Louis, Mo.) unless otherwise stated. The highly malignant +SA mouse mammary epithelial cell line was serially passaged at subconfluent cell density. The +SA mammary tumor cell line was derived from an adenocarcinoma that developed spontaneously in a BALB/c female mouse. +SA cells were maintained in serum-free defined medium consisting of Dulbecco's modified Eagle's medium (DMEM)/F12 containing 5 mg/mL bovine serum albumin (BSA), 10 […], 100 U/mL soybean trypsin inhibitor, 100 U/mL penicillin G, 0.1 mg/mL streptomycin, […], and 10 ng/mL epidermal growth factor. For subculturing, cells were rinsed twice with sterile Ca2+ and Mg2+-free phosphate buffered saline (PBS) and incubated in 0.05% trypsin containing 0.025% EDTA in PBS for 5 min at 37° C. The released cells were centrifuged, resuspended in fresh media and counted using hemocytometer. A stock solution of the compounds was prepared in DMSO. Once dissolved, this solution was added to a small volume of sterile 10% BSA in water and incubated overnight at 37° C. This solution conjugated to BSA was used to prepare various concentrations (0-40 μM) of tocotrienol analogs. DMSO was added to all treatment media such that the final DMSO concentration was the same in all treatment groups within a given experiment and was always less than 0.1%. For cytotoxic studies, cells were seeded at a density of 5×10^4 cells/well (+SA cells) or 1×10^5 cells/well (CL-S1 cells) (6 wells/group) in 24-well culture plates and allowed to grow in their respective control media. After 3 days incubation period (approximately 70% confluency), cells were divided equally into various treatment groups and exposed to their respective treatments for a 24 hours incubation period. Following the 24 hours treatment period, cell viability was measured using the MTT assay.
+SA Mammary epithelial cell viable number was determined by a 3-(4,5-dimethylthiazol-2yl)-2,5-diphenyl tetrazolium bromide (MTT) colorimetric assay. On the assay day, treatment medium was replaced with fresh control medium containing 0.42 mg/mL MTT, and the cells in 24-well plates were incubated at 37° C. for 4 hours. Afterward, the medium was removed, and the MTT crystals were dissolved in isopropyl alcohol (1 mL/well). The optical density of each sample was read at 570 nm on a microplate reader (SpectraCount, Packard BioScience Company), against a blank prepared from cell-free cultures. The number of cells/well was calculated against a standard curve prepared by plating various concentrations of cells, as determined by hemocytometer, at the start of each experiment.
Differences among the various treatment groups in +SA cell cytotoxic studies were determined by analysis of variance (ANOVA) followed by Dunnett's t-test. The difference of P<0.05 was considered to be statistically significant as compared with vehicle-treated controls unless separately described. Linear regression analysis of treatment effects on viable cell number in growth and cytotoxicity studies was used to determine the 50% growth inhibition concentration (IC50) for individual treatments.

Assay [5] has as its system MCF 10A non-tumorigenic mammary epithelial cells. The experiment in a line: MTT assay of MCF10A cells. The format is cell-based, human. The following applies: for IC50: Homo sapiens; for Selectivity index: IC50 for MCF 10A divided by IC50 for +SA cell line. The method in brief: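 MCF 10A non-tumorigenic human mammary epithelial cells were seeded at 10×10^4 cells/well and treated with compounds in serum-free medium, final DMSO below 0.1%. Viability was read by MTT, and IC50 came from non-linear regression. Selectivity index = MCF 10A IC50 ÷ +SA cell line IC50.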

Assay [6] has as its system 60 human tumor cell lines. The experiment in a line: NCI in vitro screening against 60 human cell lines, single concentration. In kind it is cell-based. To be noted: 10 μM dose; negative values indicate cytotoxicity. As for the experimental part:
Compounds selected from Compounds 3-44 were provided to the National Cancer Institute for in vitro screening against 60-human cell lines for their ability to inhibit the growth of tumor cells in a full panel representing nine different organs (blood, lung, colon, CNS, skin, ovary, kidney, prostate, and breast). The compounds were tested at a single concentration of 10 μM, and the percentages of growth inhibitions over the sixty tested cell lines were determined. Compounds showing the highest activity were chosen for secondary assays using five different compound concentrations.
The human tumor cell lines of the cancer screening panel were grown in RPMI 1640 medium containing 5% fetal bovine serum and 2 mM L-glutamine. For a typical screening experiment, cells are inoculated into 96 well microtiter plates in 100 μL at plating densities ranging from 5000 to 40,000 cells/well depending on the doubling time of individual cell lines. After cell inoculation, the microtiter plates are incubated at 37° C., 5% CO2, 95% air and 100% relative humidity for 24 hours prior to addition of experimental drugs. After 24 hours, two plates of each cell line are fixed in situ with Trichloroacetic acid (“TCA”), to represent a measurement of the cell population for each cell line at the time of drug addition. Experimental drugs are solubilized in dimethyl sulfoxide at 400-fold the desired final maximum test concentration and stored frozen prior to use. At the time of drug addition, an aliquot of frozen concentrate is thawed and diluted to twice the desired final maximum test concentration with complete medium containing 50 ng/mL gentamicin. An aliquot of 100 μL of this drug dilution is added to the appropriate microtiter wells already containing 100 μL of medium, resulting in the required final drug concentrations. Following drug addition, the plates are incubated for an additional 48 h at 37° C., 5% CO2, 95% air, and 100% relative humidity. For adherent cells, the assay is terminated by the addition of cold TCA. Cells are fixed in situ by the gentle addition of 50 μL of cold 50% (w/v) TCA (final concentration, 10% TCA) and incubated for 60 min at 4° C. The supernatant is discarded, and the plates are washed five times with tap water and air dried. Sulforhodamine B (SRB) solution (100 μL) at 0.4% (w/v) in 1% acetic acid is added to each well, and plates are incubated for 10 min at room temperature. After staining, unbound dye is removed by washing five times with 1% acetic acid and the plates are air dried. Bound stain is subsequently solubilized with 10 mM trizma base, and the absorbance is read on an automated plate reader at a wavelength of 515 nm. For suspension cells, the methodology is the same except that the assay is terminated by fixing settled cells at the bottom of the wells by gently adding 50 μL of 80% TCA (final concentration, 16% TCA). FIGS. 37-74 indicate the growth inhibition effects of selected Compounds against a variety of cell lines based on the above described testing configuration. FIGS. 37-74 present the Growth percent for a given compound against the cell lines and both values and a bar chart of the difference between the mean growth percent and the growth percent which is an indication of the selectivity of the compound for that particular cell line.

The test system of assay [7] is MDA-MB-231 human breast cancer cells. The experiment in a line: Wound-healing assay (cell migration). The format is cell-based. To be noted: Homo sapiens; MDA-MB-231, wound-healing assay, dose response; read-out: IC50 antimigratory activity. The method in brief: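 Scratch wounds made in confluent (>95%) monolayers, then compounds added in fresh medium (5 μM in screening; concentration range in follow-up), DMSO as negative control, triplicate. After 24 h serum-starved at 37 °C, cells fixed and Diff-Quick stained. Migrated cells counted per 400× field (≥3 fields); IC50 from concentration range.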

Where [8] appears, read: MCF-10A, MCF10A cells, Table II, non-linear regression, read-out: MCF10A (IC50).
[9] abbreviates: MCF 10A non-tumorigenic cells, Table I, read-out: IC50 MCF 10A.

Where two headings read alike, the source gives them in different places. Some results are limits rather than exact numbers.

`CC(C)=CCC/C(C)=C/CC/C(C)=C/CC[C@]1(C)CCc2c3c(cc(C)c2O1)OCN(C1CCN(Cc2ccccc2)CC1)C3` [Compound 8, (R)-2-(1-benzylpiperidin-4-yl)-6,8-dimethyl-8-((3E,7E)-4,8,12-trimethyltrideca-3,7,11-trienyl)-1,2,3,8,9,10-hexahydrochromeno[5,6-e][1,3]oxazine]: the GI50 entry in assay [1] is “nanomolar”.

Consider `CC(C)=CCC/C(C)=C/CC/C(C)=C/CC[C@]1(C)CCc2c3c(c(C)c(C)c2O1)OCN(CCCCCO)C3` [Compound 17, 5-((R)-5,6,8-trimethyl-8-((3E,7E)-4,8,12-trimethyltrideca-3,7,11-trienyl)-9,10-dihydrochromeno[5,6-e][1,3]oxazin-2(1H,3H,8H)-yl)pentan-1-ol], for which the IC50 (usually the point on the concentration scale where inhibition reaches its midpoint) is greater than 50 µM in assay [2], greater than 20 µM in assay [3], 8.9 µM in assay [5] (setting [8]) and 8.9 µM in assay [5] (setting [9]). Further, in assay [1], the GI50 entry was “nanomolar”. Besides, the “antiproliferative activity against +SA mammary tumor cells (in words)” value in assay [4] (described from FIG. 32 / text) is “very high activities”. Further, in assay [5], the Selectivity index turned out to be 5.24.

Turning to `CC(C)=CCC/C(C)=C/CC/C(C)=C/CC[C@]1(C)CCc2c(CNCCc3ccc(O)cc3)c(O)c(C)c(C)c2O1` [Compound 31, (R)-5-((4-hydroxyphenethylamino)methyl)-2,7,8-trimethyl-2-((3E,7E)-4,8,12-trimethyltrideca-3,7,11-trienyl)chroman-6-ol], the “mean percent growth across all 60 cell lines (mean 60)” value in assay [6] is reported as “comparable to the activity of Compound 1”. For the same compound, in assay [4] (Mus musculus, +SA cell, 24 hours treatment, read-out: IC50 antiproliferative activity against +SA mammary epithelial cells), the IC50 was 0.47 µM.

For the compound `CC(C)=CCC/C(C)=C/CC/C(C)=C/CC[C@]1(C)CCc2c3c(cc(C)c2O1)OCN(CCCCCCO)C3` [Compound 38, 6-((R)-6,8-dimethyl-8-((3E,7E)-4,8,12-trimethyltrideca-3,7,11-trienyl)-9,10-dihydrochromeno[5,6-e][1,3]oxazin-2(1H,3H,8H)-yl)hexan-1-ol], the IC50 in assay [2] is greater than 5 µM; in assay [3], greater than 20 µM; in assay [7], 1.5 µM; in assay [5] (setting [8]), 2.5 µM; in assay [5] (setting [9]) it was 2.5 µM. For the same compound, in assay [1], the GI50 result was “nanomolar”. Besides, the “mean percent growth across all 60 cell lines (mean 60)” value in assay [6] is “negative”. In addition, the Selectivity index in assay [5] was 1.92.

Take `CC(C)=CCC/C(C)=C/CC/C(C)=C/CC[C@]1(C)CCc2c3c(cc(C)c2O1)OCN(CCCCCCCCO)C3` [Compound 40, 8-((R)-6,8-dimethyl-8-((3E,7E)-4,8,12-trimethyltrideca-3,7,11-trienyl)-9,10-dihydrochromeno[5,6-e][1,3]oxazin-2(1H,3H,8H)-yl)octan-1-ol]: the IC50 was 11.7 µM in assay [2]; greater than 20 µM in assay [3]; 4.9 µM in assay [7]; 1.7 µM in assay [5] (setting [8]); 1.7 µM in assay [5] (setting [9]). The GI50 result in assay [1] is listed as “nanomolar”. For the same compound, in assay [6], the “mean percent growth across all 60 cell lines (mean 60)” value is reported as “negative”. In assay [5], the Selectivity index is recorded as 2.15.

The values above are taken from US9115145B2, “Tocotrienol derivatives and associated methods” (FIRST TECH INTERNATIONAL LIMITED, priority 2011, dated 2015).
